# Activity calls are given as the source filed them.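 How the source made its calls: active means mean IC50 below 20 µM in each of the two panels, so potent in both; inactive means the rest.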
# Biological target: Neuropilin-1 (Homo sapiens) (UniProt O14786)
# Test: blockers of CendR peptide binding to NRP-1 – biochemical, FP and AlphaScreen panel, dose response (AID 651650)
# Details: NRP-1 b1b2 / RPARPAR peptide binding, FP or AlphaScreen; FP, mean of runs
# Sequence of Neuropilin-1 (Homo sapiens) (O14786 whole entry, looked up): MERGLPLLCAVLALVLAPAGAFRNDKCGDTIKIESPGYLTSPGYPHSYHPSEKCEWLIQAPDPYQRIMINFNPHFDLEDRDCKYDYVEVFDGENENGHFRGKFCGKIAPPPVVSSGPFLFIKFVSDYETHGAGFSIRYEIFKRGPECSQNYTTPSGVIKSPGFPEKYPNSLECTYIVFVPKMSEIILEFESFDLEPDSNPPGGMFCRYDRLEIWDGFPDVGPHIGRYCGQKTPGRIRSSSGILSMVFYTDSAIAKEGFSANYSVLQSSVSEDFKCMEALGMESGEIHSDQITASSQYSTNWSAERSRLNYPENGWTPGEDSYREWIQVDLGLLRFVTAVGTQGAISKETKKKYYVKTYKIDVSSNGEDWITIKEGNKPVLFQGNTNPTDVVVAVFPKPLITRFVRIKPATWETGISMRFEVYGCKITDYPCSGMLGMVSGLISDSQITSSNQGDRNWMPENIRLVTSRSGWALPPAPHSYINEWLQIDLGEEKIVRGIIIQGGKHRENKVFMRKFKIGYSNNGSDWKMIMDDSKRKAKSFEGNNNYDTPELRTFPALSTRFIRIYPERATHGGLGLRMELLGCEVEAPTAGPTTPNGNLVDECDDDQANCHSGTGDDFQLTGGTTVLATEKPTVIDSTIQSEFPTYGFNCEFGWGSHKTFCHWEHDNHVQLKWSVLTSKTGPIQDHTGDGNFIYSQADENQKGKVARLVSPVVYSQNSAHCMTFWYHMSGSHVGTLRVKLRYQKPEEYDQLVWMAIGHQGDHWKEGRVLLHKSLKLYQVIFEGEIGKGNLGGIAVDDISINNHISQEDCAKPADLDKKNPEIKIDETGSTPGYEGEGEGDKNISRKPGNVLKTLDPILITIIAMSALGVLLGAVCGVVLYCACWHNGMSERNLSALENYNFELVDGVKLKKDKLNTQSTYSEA
row,Structure (SMILES),IC50
1,CCN(CC(=O)NCc1cccs1)S(=O)(=O)c1ccc(C(C)C)cc1,> 95 µM (inactive)
2,C=CCOc1c(CNc2ncn[nH]2)cccc1OCC,9.9 µM
3,Clc1nc(-c2ccccn2)nc2scc(-c3ccccc3)c12,> 95 µM (inactive)
4,C[C@@H]1CC=C[C@H]2[C@H]1C(=O)N(Cc1ccccc1)[C@H]2c1ccc(/C=C/c2ccccc2)cc1F,> 95 µM (inactive)
5,CC(Nc1nc(-c2ccc(F)cc2)cs1)c1nc2cc(C(F)(F)F)ccc2n1CCOCCO (stereo not given),> 95 µM (inactive)
6,c1ccc(OCCCN2CCCC2)cc1,> 95 µM (inactive)
7,O=C(NNc1ncnc2c1cnn2-c1ccc(F)cc1)c1ccco1,> 95 µM (inactive)
8,CC(=O)NC(c1cccc(F)c1)c1nc(-c2cccc(C(F)(F)F)c2)cs1 (stereo not given),> 95 µM (inactive)
9,CC(C)(C)c1nc(SCC(=O)NCc2ccco2)c2ccccc2n1,> 95 µM (inactive)
10,Cc1ccccc1NC(=S)NC(=O)COc1ccccc1C,inactive
11,COc1cc(C(=O)NCc2ccccc2)cc(Br)c1OC,> 95 µM (inactive)
12,CC(C)OC(=O)CSc1nnc(-c2ccccn2)n1-c1ccccc1,> 95 µM (inactive)
13,O=c1oc(Nc2ccccc2F)nc2ccccc12,> 95 µM (inactive)

# Next, values leading:
row,IC50,Structure (SMILES)
1,> 95 µM (inactive),O=C(COc1ccc(S(=O)(=O)N2CCCC2)cc1)Nc1ccc2c(c1)OCCO2
2,> 95 µM (inactive),CCOC(=O)c1c2ccc(OCC(=O)NN)cc2n2ccccc12
3,> 95 µM (inactive),Cc1onc(-c2ccccc2)c1C(=O)N1CCCC1
4,> 95 µM (inactive),O=C(NC1CC1)c1ccc(COc2ccc(F)cc2)o1
5,> 95 µM (inactive),C=CCN(CC=C)C(=O)C1CC(=O)N(c2ccc(Br)cc2)C1 (stereo not given)
6,> 95 µM (inactive),CN(C(=O)COC(=O)c1cnc(Cl)c(Cl)c1)C1CCCCC1
7,> 95 µM (inactive),COc1ccc(Cl)cc1S(=O)(=O)N1CCN(CC(=O)C(C)(C)C)CC1
8,> 95 µM (inactive),Cc1c(CC(=O)O)c(=O)oc2cc(OCc3ccc(F)cc3Cl)ccc12
9,> 95 µM (inactive),CN(C(=O)COC(=O)c1nc(-c2ccccc2)n(-c2ccccc2)n1)C1CCS(=O)(=O)C1 (stereo not given)
10,> 95 µM (inactive),CCC(=O)Nc1cc2c3c(c1)CCC(=O)N3CCC2

# Same assay, conditions: NRP-1 b1b2 / RPARPAR peptide binding, FP or AlphaScreen; FP, run 1; individual panel run IC50
row,Structure (SMILES),IC50 [µM]
1,CCc1cccc(NC(=O)CCc2c(C)nn(-c3ccc(N4CCOCC4)nn3)c2C)c1,> 95
2,CC(=O)N1CCSc2ccc(S(=O)(=O)Nc3ccc(C)cc3)cc21,> 95
3,COc1ccc(CCN=C2SCC(=O)N2Cc2ccccc2)cc1OC,> 95
4,COc1ccc2c(c1)N(C)/C(=C1/SC(=NCc3ccccc3)N(c3ccccc3)C1=O)S2,> 95
5,Cc1ccc2c(c1)C(c1ccncc1)=NNC(c1ccc(F)cc1)=N2,> 95
6,O=C(O)CCSc1nnc(COc2cccc3cccnc23)n1-c1ccccc1,> 95
7,Cc1cc(C)cc(N(CCC(=O)O)S(=O)(=O)c2ccc3ccccc3c2)c1,> 95
8,Cc1ccc(Nc2c(-c3ccccc3O)nc3ncccn23)cc1,> 95
9,COc1ccc(-c2noc(CN(C(=O)c3ccc4c(c3)OCO4)C(C)C)n2)cc1,> 95
10,Nc1ccc(C(=O)Nc2ccc(Nc3ccncc3)cc2)c([N+](=O)[O-])c1,> 95
11,Cc1ccc(C(=O)N2CCN(C34CC5CC(CC(C5)C3)C4)CC2)o1,> 95
12,O=C(CCn1c(=O)c2cccn2c2cccnc21)NCc1cccc(Cl)c1,> 95
13,OCC1OC(n2cnc3c(/C=C(\O)c4ccccc4)ncnc32)C(O)C1O (stereo not given),> 95
14,CCN(CC(=O)NCc1cccs1)S(=O)(=O)c1ccc(C(C)C)cc1,> 95
15,C=CCOc1c(CNc2ncn[nH]2)cccc1OCC,9.93
16,Clc1nc(-c2ccccn2)nc2scc(-c3ccccc3)c12,> 95
17,C[C@@H]1CC=C[C@H]2[C@H]1C(=O)N(Cc1ccccc1)[C@H]2c1ccc(/C=C/c2ccccc2)cc1F,> 95
18,CC(Nc1nc(-c2ccc(F)cc2)cs1)c1nc2cc(C(F)(F)F)ccc2n1CCOCCO (stereo not given),> 95
19,c1ccc(OCCCN2CCCC2)cc1,> 95
20,O=C(NNc1ncnc2c1cnn2-c1ccc(F)cc1)c1ccco1,> 95
21,CC(=O)NC(c1cccc(F)c1)c1nc(-c2cccc(C(F)(F)F)c2)cs1 (stereo not given),> 95
22,CC(C)(C)c1nc(SCC(=O)NCc2ccco2)c2ccccc2n1,> 95
23,Cc1ccccc1NC(=S)NC(=O)COc1ccccc1C,32.6
24,COc1cc(C(=O)NCc2ccccc2)cc(Br)c1OC,> 95
25,CC(C)OC(=O)CSc1nnc(-c2ccccn2)n1-c1ccccc1,> 95
26,O=c1oc(Nc2ccccc2F)nc2ccccc12,> 95

# Continued, values first:
row,IC50 [µM],Structure (SMILES)
1,> 95,COC(=O)C[C@H]1c2cc(F)ccc2S(=O)(=O)N1C(C)C
2,> 95,CCOC(=O)c1ccc2[nH]c(C)c(C)c2c1
3,> 95,CCOc1ccccc1C1CC(=O)NC2=C1C(=O)CC(C)(C)C2 (stereo not given)
4,> 95,Cc1onc(-c2ccc(Cl)cc2Cl)c1-c1csc(COc2ccccc2)n1
5,> 95,CCOC(=O)c1c(=O)n(O)c2ccc(OC)cc2[n+]1[O-]
6,> 95,O=C1CCCN1CCCNC(=S)Nc1ccc(Cl)cc1Cl
7,> 95,OCC[C@H]1C[C@H](O)[C@@H](O)[C@]2(CCCCO2)O1
8,> 95,CC(C)c1ccc(S(=O)(=O)N2CCN(C(=O)CN3C(=O)c4ccccc4C3=O)CC2)cc1
9,> 95,O=C(COC(=O)C1CC(=O)N(Cc2ccccc2)C1)Nc1ccccc1F (stereo not given)
10,> 95,CCOC(=O)c1ccc(N2CCN(C(=O)c3ccccc3)CC2)c(NC(=O)c2ccco2)c1
11,> 95,O=C(COc1ccc(S(=O)(=O)N2CCCC2)cc1)Nc1ccc2c(c1)OCCO2
12,> 95,CCOC(=O)c1c2ccc(OCC(=O)NN)cc2n2ccccc12
13,> 95,Cc1onc(-c2ccccc2)c1C(=O)N1CCCC1
14,> 95,O=C(NC1CC1)c1ccc(COc2ccc(F)cc2)o1
15,> 95,C=CCN(CC=C)C(=O)C1CC(=O)N(c2ccc(Br)cc2)C1 (stereo not given)
16,> 95,CN(C(=O)COC(=O)c1cnc(Cl)c(Cl)c1)C1CCCCC1
17,> 95,COc1ccc(Cl)cc1S(=O)(=O)N1CCN(CC(=O)C(C)(C)C)CC1
18,> 95,Cc1c(CC(=O)O)c(=O)oc2cc(OCc3ccc(F)cc3Cl)ccc12
19,> 95,CN(C(=O)COC(=O)c1nc(-c2ccccc2)n(-c2ccccc2)n1)C1CCS(=O)(=O)C1 (stereo not given)
20,> 95,CCC(=O)Nc1cc2c3c(c1)CCC(=O)N3CCC2

# Same assay, conditions: NRP-1 b1b2 / RPARPAR peptide binding, FP or AlphaScreen; FP, run 2; individual panel run IC50
row,Structure (SMILES),IC50 [µM]
1,CCc1cccc(NC(=O)CCc2c(C)nn(-c3ccc(N4CCOCC4)nn3)c2C)c1,> 95
2,CC(=O)N1CCSc2ccc(S(=O)(=O)Nc3ccc(C)cc3)cc21,> 95
3,COc1ccc(CCN=C2SCC(=O)N2Cc2ccccc2)cc1OC,> 95
4,COc1ccc2c(c1)N(C)/C(=C1/SC(=NCc3ccccc3)N(c3ccccc3)C1=O)S2,> 95
5,Cc1ccc2c(c1)C(c1ccncc1)=NNC(c1ccc(F)cc1)=N2,> 95
6,O=C(O)CCSc1nnc(COc2cccc3cccnc23)n1-c1ccccc1,> 95
7,Cc1cc(C)cc(N(CCC(=O)O)S(=O)(=O)c2ccc3ccccc3c2)c1,> 95
8,Cc1ccc(Nc2c(-c3ccccc3O)nc3ncccn23)cc1,> 95
9,COc1ccc(-c2noc(CN(C(=O)c3ccc4c(c3)OCO4)C(C)C)n2)cc1,> 95
10,Nc1ccc(C(=O)Nc2ccc(Nc3ccncc3)cc2)c([N+](=O)[O-])c1,> 95
11,Cc1ccc(C(=O)N2CCN(C34CC5CC(CC(C5)C3)C4)CC2)o1,> 95
12,O=C(CCn1c(=O)c2cccn2c2cccnc21)NCc1cccc(Cl)c1,> 95
13,OCC1OC(n2cnc3c(/C=C(\O)c4ccccc4)ncnc32)C(O)C1O (stereo not given),> 95
14,CCN(CC(=O)NCc1cccs1)S(=O)(=O)c1ccc(C(C)C)cc1,> 95
15,C=CCOc1c(CNc2ncn[nH]2)cccc1OCC,> 95
16,Clc1nc(-c2ccccn2)nc2scc(-c3ccccc3)c12,> 95
17,C[C@@H]1CC=C[C@H]2[C@H]1C(=O)N(Cc1ccccc1)[C@H]2c1ccc(/C=C/c2ccccc2)cc1F,> 95
18,CC(Nc1nc(-c2ccc(F)cc2)cs1)c1nc2cc(C(F)(F)F)ccc2n1CCOCCO (stereo not given),> 95
19,c1ccc(OCCCN2CCCC2)cc1,> 95
20,O=C(NNc1ncnc2c1cnn2-c1ccc(F)cc1)c1ccco1,> 95
21,CC(=O)NC(c1cccc(F)c1)c1nc(-c2cccc(C(F)(F)F)c2)cs1 (stereo not given),> 95
22,CC(C)(C)c1nc(SCC(=O)NCc2ccco2)c2ccccc2n1,> 95
23,Cc1ccccc1NC(=S)NC(=O)COc1ccccc1C,35
24,COc1cc(C(=O)NCc2ccccc2)cc(Br)c1OC,> 95
25,CC(C)OC(=O)CSc1nnc(-c2ccccn2)n1-c1ccccc1,> 95
26,O=c1oc(Nc2ccccc2F)nc2ccccc12,> 95

# Next, values leading:
row,IC50 [µM],Structure (SMILES)
1,> 95,COC(=O)C[C@H]1c2cc(F)ccc2S(=O)(=O)N1C(C)C
2,> 95,CCOC(=O)c1ccc2[nH]c(C)c(C)c2c1
3,> 95,CCOc1ccccc1C1CC(=O)NC2=C1C(=O)CC(C)(C)C2 (stereo not given)
4,> 95,Cc1onc(-c2ccc(Cl)cc2Cl)c1-c1csc(COc2ccccc2)n1
5,> 95,CCOC(=O)c1c(=O)n(O)c2ccc(OC)cc2[n+]1[O-]
6,> 95,O=C1CCCN1CCCNC(=S)Nc1ccc(Cl)cc1Cl
7,> 95,OCC[C@H]1C[C@H](O)[C@@H](O)[C@]2(CCCCO2)O1
8,> 95,CC(C)c1ccc(S(=O)(=O)N2CCN(C(=O)CN3C(=O)c4ccccc4C3=O)CC2)cc1
9,> 95,O=C(COC(=O)C1CC(=O)N(Cc2ccccc2)C1)Nc1ccccc1F (stereo not given)
10,> 95,CCOC(=O)c1ccc(N2CCN(C(=O)c3ccccc3)CC2)c(NC(=O)c2ccco2)c1
11,> 95,O=C(COc1ccc(S(=O)(=O)N2CCCC2)cc1)Nc1ccc2c(c1)OCCO2
12,> 95,CCOC(=O)c1c2ccc(OCC(=O)NN)cc2n2ccccc12
13,> 95,Cc1onc(-c2ccccc2)c1C(=O)N1CCCC1
14,> 95,O=C(NC1CC1)c1ccc(COc2ccc(F)cc2)o1
15,> 95,C=CCN(CC=C)C(=O)C1CC(=O)N(c2ccc(Br)cc2)C1 (stereo not given)
16,> 95,CN(C(=O)COC(=O)c1cnc(Cl)c(Cl)c1)C1CCCCC1
17,> 95,COc1ccc(Cl)cc1S(=O)(=O)N1CCN(CC(=O)C(C)(C)C)CC1
18,> 95,Cc1c(CC(=O)O)c(=O)oc2cc(OCc3ccc(F)cc3Cl)ccc12
19,> 95,CN(C(=O)COC(=O)c1nc(-c2ccccc2)n(-c2ccccc2)n1)C1CCS(=O)(=O)C1 (stereo not given)
20,> 95,CCC(=O)Nc1cc2c3c(c1)CCC(=O)N3CCC2

# — PubChem BioAssay AID651650 (Sanford-Burnham Center for Chemical Genomics, 2012)
